Experimental data: patent publication US20200308184A1, “TETRAPYRROLIC CONJUGATES AND USES THEREOF FOR IMAGING” (Health Research, Inc., priority 2017, published 2020)
Where two headings read alike, the source gives them in different places.

What was measured:
[1] = published value, 37 C; cited from earlier work
Ward rat tumor = details: HPPH alone, previous findings; cited from earlier work
[2] = T1 and T2 relaxivities of compounds 4, 9 & 14 on 4.7 Tesla preclinical MRI; format: physicochemical; details: T1 relaxivity, 37C, in PBS
Experimental: Characterization of MR imaging efficacy for compounds 4, 9 & 14. MR imaging was performed on a 4.7 Tesla preclinical MRI using the ParaVision 3.0.2 acquisition platform (Bruker Biospin, Billerica Mass.). In vitro relaxivities were acquired using the Bruker G060 gradient insert and a quadrature radiofrequency coil (35 mm ID, m2m Imaging, Cleveland Ohio). In vivo imaging in rat models utilized larger Accustar® shield gradients (150 mm ID) and a quadrature radiofrequency coil (72 mm ID, Bruker Biospin).
T1 and T2 relaxivities for compounds 4, 9 & 14 were acquired at 37C. Samples were diluted in PBS with concentrations ranging from 50 to 200 μM and transferred to NMR tubes for imaging. A tube containing 1× PBS was included as a “0 μM control”. T1 relaxation rates of serial dilutions were measured using an inversion-recovery TrueFISP acquisition with the following parameters: TE/TR=1.5/3.0 ms, flip angle=30°, inv. Repetition time=10 s, segments=8, frames=100. T2 relaxation rates were measured using a multi-echo, Carr-Purcell-Meiboom-Gill (CPMG) spin-echo sequence with a fixed TR of 3000 ms and TE times ranging from 20-1200 ms in 20 ms increments (60 echoes). The relaxation rate of each sample calculated using non-linear regression analysis routines developed in MATLAB (MathWorks, Natick, Mass.) and relaxivities were then calculated by linear regression (concentration vs. relaxation rate).

Row | rl at 4.7T [2] [mM/s] | SMILES | rl at 4.7T [1] [mM/s] | other results
1 | – | O=C([O-])CN1CCN(CC(=O)[O-])CCN(CC(=O)O)CCN(CC(=O)[O-])CC1.[Gd+3] [Gd-DOTA] | 2.8 | –
2 | – | O=C([O-])CN(CCN(CC(=O)[O-])CC(=O)O)CCN(CC(=O)[O-])CC(=O)O.[Gd+3] [Gd-DTPA, Gadolinium-diethyline-triamine pentacetic-acid] | 3.2 | –
3 | – | CCCCCCOC(C)c1c(C)c2cc3nc(c4c5[nH]c(cc6nc(cc1[nH]2)C(C)=C6CC)c(C)c5C(=O)C4)[C@@H](CCC(=O)O)[C@@H]3C (some centres unmarked) [HPPH, 3-(1-hexyloxyethyl) pyropheophorbide-a] | – | time of peak concentrations (Ward rat tumor): 24 h
4 | 4.44 | CCCCCCOC(C)c1c(C)c2cc3nc(c4c5[nH]c(cc6nc(cc1[nH]2)C(C)=C6CC)c(C)c5C(=O)C4)[C@@H](CCC(=O)NCCNC(=O)CN1CCN(CC(=O)[O-])CCN(CC(=O)[O-])CCN(CC(=O)[O-])CC1)C3C.[Gd+3] (some centres unmarked) [compound 4] | – | –
5 | 10.65 | CCCCCCOC(C)c1c(C)c2cc3nc(c4c5[nH]c(cc6nc(cc1[nH]2)C(C)=C6CC)c(C)c5C(=O)C4)[C@@H](CCC(=O)N(CC(=O)NCCNC(=O)CN1CCN(CC(=O)[O-])CCN(CC(=O)[O-])CCN(CC(=O)[O-])CC1)CC(=O)NCCNC(=O)CN1CCN(CC(=O)[O-])CCN(CC(=O)[O-])CCN(CC(=O)[O-])CC1)C3C.[Gd+3].[Gd+3] (some centres unmarked) [compound 9] | – | –
